Reference: patent US11225505B2, “Antimicrobial polymyxin derivative compounds” (MONASH UNIVERSITY, priority 2015, dated 2022)
In brackets after ≈: the same amount, converted by molar mass. Where a SMILES comes first, the peptide text is derived from it. Bridges are numbered along the chain shown (N, C = ends). [ ]: non-standard residue; d: D form. The star is where a group is joined. X22 = Cn1c(C(=O)*)cc2ccccc21; X36 = O=C(c1ncc(Br)cc1Br)*; X1 = O=C(c1ncc(Cl)cc1Cl)*; X12 = CCc1ccc(C(=O)*)nc1; X65 = O=C(c1cc(Br)ccn1)*; Dab = NCC[C@H](N)C(=O)O; Abu = CC[C@H](N)C(=O)O; Dap = NC[C@H](N)C(=O)O

Assays:
Type in all cases: cell-based
[1] = tested on: Acinetobacter baumannii ATCC 17978; conditions: ATCC 17978
Procedure, shortened: (§1)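 Lipopeptides (TFA salts) tested against Gram-negative strains by CLSI broth microdilution using cation-adjusted Mueller-Hinton broth; MIC recorded, polymyxin B sulphate as control.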

[2] = tested on: Klebsiella pneumoniae Kp BM1; conditions: Kp BM1
Procedure, shortened: (§2)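 MIC; CLSI broth microdilution; cation-adjusted MH broth; test articles as TFA salts; polymyxin B control; polymyxin-susceptible isolates.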

[3] = tested on: Enterobacter cloacae FADDI-EC001; conditions: FADDI-EC001
Procedure, shortened: as §2

[4] = tested on: Klebsiella pneumoniae FADDI-KP022; conditions: FADDI-KP022
Procedure, shortened: as §1

[5] = tested on: Acinetobacter baumannii FADDI-AB034; conditions: FADDI-AB034
Procedure, shortened: as §1

[6] = tested on: Pseudomonas aeruginosa FADDI-PA01; conditions: FADDI-
Procedure, shortened: as §1

[7] = tested on: Pseudomonas aeruginosa ATCC 27853; conditions: ATCC 27853
Procedure, shortened: as §1

[8] = tested on: Enterobacter cloacae FADDI-EC006; conditions: FADDI-EC006
Procedure, shortened: as §1

[9] = tested on: Enterobacter cloacae FADDI-EC003; conditions: FADDI-EC003
Procedure, shortened: as §1

[10] = tested on: Klebsiella pneumoniae FADDI-KP032; conditions: FADDI-KP032
Procedure, shortened: as §1

[11] = tested on: Pseudomonas aeruginosa FADDI-PA038; conditions: FADDI-PA038
Procedure, shortened: as §1

[12] = tested on: Pseudomonas aeruginosa FADDI-PA022; conditions: FADDI-PA022
Procedure, shortened: as §1

[13] = tested on: Acinetobacter baumannii FADDI-AB030; experiment: microbe, parasite or virus in culture; conditions: FADDI-AB030
Procedure, shortened: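 Lipopeptide TFA salts tested against the multidrug-resistant clinical isolate by CLSI (M100-S24) broth microdilution in cation-adjusted Mueller-Hinton broth, with polymyxin B sulphate as control; MIC read.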

| Compound | Minimum inhibitory concentration [1] [µg/mL] | Minimum inhibitory concentration [2] [µg/mL] | Minimum inhibitory concentration [3] [µg/mL] | Minimum inhibitory concentration [4] [µg/mL] | Minimum inhibitory concentration [5] [µg/mL] | Minimum inhibitory concentration [6] [µg/mL] | Minimum inhibitory concentration [7] [µg/mL] | Minimum inhibitory concentration [8] [µg/mL] | Minimum inhibitory concentration [9] [µg/mL] | Minimum inhibitory concentration [10] [µg/mL] | Minimum inhibitory concentration [11] [µg/mL] | Minimum inhibitory concentration [12] [µg/mL] | Minimum inhibitory concentration [13] [µg/mL] |
| --- | --- | --- | --- | --- | --- | --- | --- | --- | --- | --- | --- | --- | --- |
| CC[C@@H]1NC(=O)[C@@H](CC(C)C)NC(=O)[C@H](CCN)NC(=O)[C@@H](NC(=O)[C@H](CN)NC(=O)[C@@H](NC(=O)[C@H](CCN)NC(=O)c2cc(Br)ccn2)[C@@H](C)O)CCNC(=O)[C@H]([C@@H](C)O)NC(=O)[C@H](CCN)NC(=O)[C@H](CCN)NC1=O [Compound 102] (X65-[Dab]T[Dap][Dab][Dab][dL][Abu][Dab][Dab]T; lactam 4-C) | 0.5 (≈ 0.427 µM) | <0.125 | <0.125 | <0.125 | 0.5 (≈ 0.427 µM) | 0.5 (≈ 0.427 µM) | 0.5 (≈ 0.427 µM) | <0.125 | <0.125 | 0.25 (≈ 0.213 µM) | 1 (≈ 0.854 µM) | 0.5 (≈ 0.427 µM) | 0.25 (≈ 0.213 µM) |
| CC[C@@H]1NC(=O)[C@@H](CC(C)C)NC(=O)[C@H](CCN)NC(=O)[C@@H](NC(=O)[C@H](CN)NC(=O)[C@@H](NC(=O)[C@H](CCN)NC(=O)c2cc3ccccc3n2C)[C@@H](C)O)CCNC(=O)[C@H]([C@@H](C)O)NC(=O)[C@H](CCN)NC(=O)[C@H](CCN)NC1=O [Compound 48] (X22-[Dab]T[Dap][Dab][Dab][dL][Abu][Dab][Dab]T; lactam 4-C) | <0.125 | <0.125 | <0.125 | <0.125 | 0.25 (≈ 0.218 µM) | <0.125 | 0.25 (≈ 0.218 µM) | 0.25 (≈ 0.218 µM) | 0.25 (≈ 0.218 µM) | <0.125 | <0.125 | 0.25 (≈ 0.218 µM) | <0.125 |
| CCc1ccc(C(=O)N[C@@H](CCN)C(=O)N[C@H](C(=O)N[C@@H](CN)C(=O)N[C@H]2CCNC(=O)[C@H]([C@@H](C)O)NC(=O)[C@H](CCN)NC(=O)[C@H](CCN)NC(=O)[C@H](CC)NC(=O)[C@@H](CC(C)C)NC(=O)[C@H](CCN)NC2=O)[C@@H](C)O)nc1 [Compound 42] (X12-[Dab]T[Dap][Dab][Dab][dL][Abu][Dab][Dab]T; lactam 4-C) | 1 (≈ 0.893 µM) | 0.25 (≈ 0.223 µM) | <0.125 | <0.125 | 0.5 (≈ 0.446 µM) | <0.125 | <0.125 | <0.125 | <0.125 | <0.125 | 0.25 (≈ 0.223 µM) | <0.125 | <0.125 |
| CC(C)C[C@H]1NC(=O)[C@H](CCN)NC(=O)[C@@H](NC(=O)[C@H](CN)NC(=O)[C@@H](NC(=O)[C@H](CCN)NC(=O)c2ncc(Cl)cc2Cl)[C@@H](C)O)CCNC(=O)[C@H]([C@@H](C)O)NC(=O)[C@H](CCN)NC(=O)[C@H](CCN)NC(=O)[C@H](C)NC1=O [Compound 10] (X1-[Dab]T[Dap][Dab][Dab][dL]A[Dab][Dab]T; lactam 4-C) | 4 (≈ 3.49 µM) | 4 (≈ 3.49 µM) | 0.25 (≈ 0.218 µM) | 0.25 (≈ 0.218 µM) | 4 (≈ 3.49 µM) | 0.5 (≈ 0.436 µM) | 0.25 (≈ 0.218 µM) | 0.5 (≈ 0.436 µM) | 0.25 (≈ 0.218 µM) | 0.5 (≈ 0.436 µM) | 1 (≈ 0.872 µM) | 0.5 (≈ 0.436 µM) | 8 (≈ 6.97 µM) |
| CC(C)C[C@H]1NC(=O)[C@H](CCN)NC(=O)[C@@H](NC(=O)[C@H](CN)NC(=O)[C@@H](NC(=O)[C@H](CCN)NC(=O)c2ncc(Br)cc2Br)[C@@H](C)O)CCNC(=O)[C@H]([C@@H](C)O)NC(=O)[C@H](CCN)NC(=O)[C@H](CCN)NC(=O)[C@H]([C@@H](C)O)NC1=O [Compound 29] (X36-[Dab]T[Dap][Dab][Dab][dL]T[Dab][Dab]T; lactam 4-C) | 2 (≈ 1.58 µM) | 0.5 (≈ 0.395 µM) | 0.25 (≈ 0.197 µM) | 0.25 (≈ 0.197 µM) | 2 (≈ 1.58 µM) | 0.5 (≈ 0.395 µM) | 1 (≈ 0.79 µM) | <0.125 | 0.25 (≈ 0.197 µM) | 1 (≈ 0.79 µM) | 1 (≈ 0.79 µM) | 0.25 (≈ 0.197 µM) | 1 (≈ 0.79 µM) |
